Laboratory results reported in patent US20240200005A1, “METHOD FOR DEVELOPING AND/OR REPROGRAMMING PLANT CELLULAR OBJECTS” (SCREENSYS GMBH, priority 2021, published 2024).

System: microspores of Brassica napus
Assay: Dose-response of TSA trigger on growth/reprogramming of microspores in microfluidic compartments (image-based size analysis)
Type: cell-based
Details: for percentage of total microspores larger than 45 μm (multicellular stage): after 3 days
Description: For the cultivation of the microspores, the desired compartment sequences were generated by application of the system as shown in FIG. 1. The core of the system 2 was a five-channel precision syringe pump 11 (NEMESYS Cetoni GmbH, Germany) which can feed up to five fluids 6a-6e carried in glass syringes 20 (SETonic GmbH, Germany). One channel was used for the delivery of perfluoro-methyldecalin (PP9) as carrier fluid 6/6a, which is immiscible with the other fluids and thus separates the individual aqueous compartments 4 from one another inside the generated compartment 4 sequence. Another channel was used for 1×NLN13 (recipe below) medium 6b to dilute the medium with the microspores 14 and adjust the total volume of the compartments 4, and thus the concentration of the plant cellular objects 14 and the other substances, during formation. Two different trigger solutions 6c, 6d were used in channels three and four. Channel five was used for dosing the cell suspension, i.e. the medium with the plant cellular objects 14, itself. A cell container vial 12 was employed to feed the microspores 14 into the compartment generator 10. For this, a small conical glass vial 12 with a capacity of about 2 ml was used (See FIG. 1). The vial 12 was filled with the microspore suspension, i.e. medium with plant cellular objects 14, and closed airtight and free of air bubbles. The initial microspore density in the vial 12 was about 700.000 microspores/ml.
By syringe pump-controlled addition of medium 6e into the container 12 the suspended microspores 14 were fed through the container outlet conduit 16, a 0.2 mm ID FEP tube, into the compartment generator 10. ID stands for inner diameter. Instead of medium 6e it is also contemplated to add carrier fluid 6 to the container 12 with the suspended microspores. The individual syringes 20 were connected with the compartment generator 10 via respective conduits 17. Compartments 4 of about 120 nL volume each were formed and forwarded in a 0.5 mm ID PTFE tube as the microfluidic conduit 8 for incubation. A detailed description of the used compartment generator 10 can be found in “Cao J, Richter F, Kastl M, Erdmann J, Burgold C, Dittrich D, Schneider S, Köhler J M, Groß GA (2020) Droplet-Based Screening for the Investigation of Microbial Nonlinear Dose-Response Characteristics System, Background and Examples. Micromachines. 10.3390/mi1106057”, which is incorporated herein in its entirety by reference. For sufficient diffusive aeration during long-time incubation times, PTFE tubes with low wall thickness were used (inner diameter: 0.5 mm, outer diameter: 1.0 mm). Typical flow rate conditions of about 30 μl/min for the aqueous phases, i.e. the sample fluid, i.e. the medium 6b, the medium with the plant cellular objects, and the trigger solutions 6c, 6d, and about 100 μl/min for the embedding phase, i.e. the carrier fluid 6a, were used. […] However, other tube materials and dimensions may be used.
For a dose-response experiment the Trichostatin A (TSA) was chosen as a trigger. The stimulating effect of TSA on the germination of the microspores 14 was investigated in a concentration range from 0.01 μM up to 5 μM. Therefore, TSA stock solutions of 0.2 μM TSA 6c and 10 μM TSA 6d were used in the syringes 20 for triggers 1 and 2. The application of an appropriate flow rate program yielded the compartment 4 sequence with the desired concentrations of TSA in the compartments 4, as shown in FIG. 2. The resulting compartments 4 were composed of 50% volume microspore suspension, 50%-0% dilution medium 6b and 0-50% of the trigger solution 6c, 6d. Depending on the intended concentration of TSA in the generated compartments 4, either 0.2 μM TSA solution 6c or 10 μM TSA solution 6d was added to the generated compartments 4. The flow rate for the carrier medium 6e, here PP9, was kept constant at 50 μl/min. […]

## CC(/C=C/C(=O)NO)=C\[C@@H](C)C(=O)c1ccc(N(C)C)cc1 [TSA, Trichostatin A]
0.01 μM TSA, after 3 days incubation at 32° C.
  percentage of microspores larger than 35 μm: about 3%
0.01 μM TSA, after 6 days versus 3 days
  change of percentage of microspores larger than 35 μm: increased only marginally
0.05 μM TSA
  percentage of total microspores larger than 45 μm (multicellular stage): about 1%
0.05 μM TSA, after 6 days
  percentage of total microspores with a diameter of at least 35 μm: about 8%
  percentage of very large microspores (>45 μm): about 2%
0.1 μM TSA
  percentage of total microspores larger than 45 μm (multicellular stage): about 1%
0.1 μM TSA, after 3 days incubation at 32° C.
  percentage of microspores larger than 35 μm: ~9%
0.1 μM TSA, after 6 days
  percentage of microspores larger than 35 μm (total column): 11.4%
  proportion of microspores larger than 45 μm: 4.4%
0.35 μM TSA
  percentage of total microspores larger than 45 μm (multicellular stage): about 1%
0.35 μM TSA, after 3 days incubation at 32° C.
  percentage of microspores larger than 35 μm: 8%
0.35 μM TSA, after 6 days
  percentage of microspores larger than 35 μm: 11.7%
  percentage of very large microspores (>45 μm): 3.8%
0.5 μM TSA, after 3 days incubation at 32° C.
  percentage of microspores larger than 35 μm: about 4.4%
0.5 μM TSA, after 6 days
  percentage of total microspores with a diameter of at least 35 μm: about 8%
  percentage of very large microspores (>45 μm): about 2%
1 μM TSA, after 3 days incubation at 32° C.
  percentage of microspores larger than 35 μm: ~4%
1 μM TSA, after 6 days
  green portion of column (microspores larger than 45 μm): approximately 1.7%
  percentage of microspores larger than 35 μm (total column height): 6.4%
2 μM TSA, after 3 days incubation at 32° C.
  percentage of microspores larger than 35 μm: ~0%
2 μM TSA, after 6 days
  percentage of microspores larger than 35 μm: about 1.3%
5 μM TSA, after 3 days incubation at 32° C.
  percentage of microspores larger than 35 μm: 0%
5 μM TSA, after 6 days
  growth of microspores: without any recognizable growth
0.05 M TSA (so in the source), after 3 days incubation at 32° C.
  percentage of microspores larger than 35 μm: approximately 7.6%
microspores, no recognizable growth after 6 days
  lethal dose: 5 µM
